Several values for one entry are separate records, joined by “and”; a condition that tells them apart may be missing. Equal entries are not always repeated.
System: GEMS receptors with CBPA11 (BclXL–LD3 and BclXLhigh variants), STAT3-driven SEAP in HEK293T cells
Assay: GEMS SEAP reporter assay, CBPA11 (BclXLhigh, LD3-v and BclXL-v variants) with A-1155463
Type: cell-based
Design: key to Raw data (SEAP) / SEAP, replicate values / Raw data of Figure 5b / Raw data Figure 5e / Raw data of Independent repeat of CBPA11-v1 vs CBPA11-v1-LD3v3 / Raw data of Independent repeat of CBPA11-v3 vs CBPA11-v3-LD3v3 / Raw data of Figure 5b, CBPA11-v1-LD3v3 (SEAP reporter raw value, single replicate) / Raw data of Figure 5b, CBPA11-v1 (SEAP reporter raw value, single replicate): SEAP activity in U/L in culture supernatant
Settings: for SEAP (U/L): Figure 4d, representative data and independent repeats 1, 2 (triplicates); for Normalized data (SEAP) / Raw data (SEAP): SuppFigure 9a
Source text: To rationally design a CBP responding to a chemical input, we used BclXL as the druglow receptor, LD3 as the designed binder and a designed BclXL variant as the drughigh receptor (referred to as BclXLhigh) to construct a CBP responsive to BclXL inhibitors (Fig. 4a). To design BclXLhigh, we used a multistate design computational protocol described elsewhere[26] […] Thus, BclXLhigh-v(1–3) were chosen as the functional drughigh receptors, resulting in three A-1155463-controlled CBPs (referred to as CBPA11-v(1–3)) (Fig. 4c–e).
HEK293T cells were seeded in a 96-well plate 24 h before transfection. The transfection mix in each well consisted of 3 ng of constitutive human CMV promoter driven mammalian STAT3 expression vector (PhCMV-STAT3-pA), 30 ng of STAT3-induced reporter expression (OStat3-PhCMVmin-SEAP-pA) and 50 ng of expression vectors for each GEMS receptor chain (PSV40-IgK-(drughigh receptor)-EpoRm-IL-6RBm-pA and PSV40-IgK-(druglow receptor-GGGGSX3-LD3)-EpoRm-IL-6RBm-pA). For the specific drughigh receptor and druglow receptor used in the different cellular assays, they are indicated as wild type or with mutations. Then, plasmid DNA was mixed with 50 μl opti-MEM (Thermo Fisher) and 600 ng of polyethyleneimine (Polysciences, catalog no. 24765-1). For drug treatment experiments, drugs were added 12 h post-transfection and incubated with cells for 24 h before the SEAP reporter detection assay.
SEAP activity (U l^−1) in cell culture supernatants was quantified by kinetic measurements at 405 nm (1 minute per measurement for 30 cycles) of absorbance increase due to phosphatase-mediated hydrolysis of para-nitrophenyl phosphate (pNPP).
Binding affinities of SPR drug competition assays were calculated using three-parameter nonlinear regression in GraphPad Prism (v.8.3.0). Representative data of cell assays are presented as individual values and mean values (bars). n = 3 refers to biological replicates. All IC50 or EC50 values of cell assays reported were calculated using four-parameter nonlinear regression ± s.d. Bandpass features of cutoff concentrations and Bandwidth90% were estimated based on the curve fitted using bell-shaped curve nonlinear regression in GraphPad Prism (v.8.3.0). […]
Supplementary Figure 4: Design, screening and validation of BclXLhigh variants. a) Screening of BclXLhigh variants in the GEMS platform. […]
Dissociation constant measurement of BclXLhigh-v(1-3) and LD3. Equilibrium curves are fitted using […]
BclXLhigh-v1 (purple), BclXLhigh-v2 (blue), […]
a) Bcl2high-based bandpass filter designs were developed and to respond to different concentrations of […]
corresponding inhibitor. c) Screening of Bcl2high-based bandpass filter variants in the GEMS platform.
The designed binder LD3 was fused to the druglow-receptor (PSV40-IgK-Bcl2-LD3-EpoRm-IL-6RBm-pA) in one EpoR chain and Bcl2high variants with the insensitive Bcl2 (iBcl2) as control in the other EpoR chain (PSV40-IgK-Bcl2high-EpoRm-IL-6RBm-pA). HEK293T cells were transfected with indicated […]
the mean of six biological replicates ± s.d., overlaid with a scatter dot plot of the original data points.
(1 picture or pasted object on this page, not shown here)
Supplementary Figure 6: Binding affinities and drug resistances of Bcl2high-v(2,4,5) assessed by […]
a) Measurement of dissociation constants for Bcl2high-v(2,4,5) and LD3 interactions. Equilibrium curves […]
Bcl2high-v(2,4,5) measured by SPR. 5 μM of Bcl2 or indicated variants were mixed with 10 μM of […]
Bcl2high-v2 (red), Bcl2high-v4
Supplementary Figure 7: Screening of LD3 variants in CBPA11-v(1-3) and raw data of CBPA11-v(1,3) with LD3-v3 variant. a-c) Screening of LD3 and LD3-v(1-3) variants in complex with BclXL for more sensitive CBPA11-v1 (a), CBPA11-v2 (b), CBPA11-v3 (c) in the GEMS platform. The LD3 variants replaced the role of LD3 (PSV40-IgK-BclXL-LD3-v(1-3)-EpoRm-IL-6RBm-pA) in one EpoR chain and BclXLhigh-v(1-3) in the other EpoR chain (PSV40-IgK-BclXLhigh-V(1-3)-EpoRm-IL-6RBm-pA). HEK293T cells were transfected with […]

[1] = CBPA11-v3-LD3v3, A-1155463 10000 nM

CN(C)CC#Cc1ccc(OCCCc2sc(N3CCc4cccc(C(=O)Nc5nc6ccccc6s5)c4C3)nc2C(=O)O)c(F)c1 [A-1155463]
Normalized data of Figure 5b [1]: 13.381 and 8.285 and 13.0686
Raw data of Figure 5b [1]: 11.3652 and 7.762 and 13.9821
SEAP (U/L) (A-1155463 1 nM): 8.303 U/L and 10.1289 U/L and 7.12 U/L and 9.7586 U/L and 8.864 U/L and 9.857 U/L
SEAP (U/L) (A-1155463 3.16 nM): 6.744 U/L and 8.922 U/L and 8.703 U/L and 12.2331 U/L and 8.658 U/L and 8.903 U/L
Normalized data (SEAP) (BclXL-v1, A-1155463 1 nM): 9.876
Raw data (SEAP) (BclXL-v1, A-1155463 1 nM): 9.508
Normalized data (SEAP) (BclXL-v1, A-1155463 3.16 nM): 8.253
Raw data (SEAP) (BclXL-v1, A-1155463 3.16 nM): 7.946
Normalized data (SEAP) (BclXL-v1, A-1155463 100 nM): 78.5603
Raw data (SEAP) (BclXL-v1, A-1155463 100 nM): 75.6338
Normalized data (SEAP) (BclXL-v1, A-1155463 316 nM): 100
Raw data (SEAP) (BclXL-v1, A-1155463 316 nM): 96.2749
Normalized data (SEAP) (BclXL-v1, A-1155463 1000 nM): 71.1878
Raw data (SEAP) (BclXL-v1, A-1155463 1000 nM): 68.536
Normalized data (SEAP) (BclXL-v1, A-1155463 3160 nM): 30.3077
Raw data (SEAP) (BclXL-v1, A-1155463 3160 nM): 29.1787
Normalized data (SEAP) (BclXL-v1, A-1155463 10000 nM): 12.5367
Raw data (SEAP) (BclXL-v1, A-1155463 10000 nM): 12.0697
Normalized data (SEAP) (BclXL-v2, A-1155463 1 nM): 3.201
Raw data (SEAP) (BclXL-v2, A-1155463 1 nM): 9.801
Normalized data (SEAP) (BclXL-v2, A-1155463 3.16 nM): 2.258
Raw data (SEAP) (BclXL-v2, A-1155463 3.16 nM): 6.914
Normalized data (SEAP) (BclXL-v2, A-1155463 100 nM): 100
Raw data (SEAP) (BclXL-v2, A-1155463 100 nM): 306.188
Normalized data (SEAP) (BclXL-v2, A-1155463 316 nM): 84.9937
Raw data (SEAP) (BclXL-v2, A-1155463 316 nM): 260.24
Normalized data (SEAP) (BclXL-v2, A-1155463 1000 nM): 53.3071
Raw data (SEAP) (BclXL-v2, A-1155463 1000 nM): 163.22
Normalized data (SEAP) (BclXL-v2, A-1155463 3160 nM): 38.1484
Raw data (SEAP) (BclXL-v2, A-1155463 3160 nM): 116.806
Normalized data (SEAP) (BclXL-v2, A-1155463 10000 nM): 23.1544
Raw data (SEAP) (BclXL-v2, A-1155463 10000 nM): 70.8961
Normalized data (SEAP) (BclXL-v3, A-1155463 1 nM): 38.0177
Raw data (SEAP) (BclXL-v3, A-1155463 1 nM): 3.662
Normalized data (SEAP) (BclXL-v3, A-1155463 3.16 nM): 36.4228
Raw data (SEAP) (BclXL-v3, A-1155463 3.16 nM): 3.509
Normalized data (SEAP) (BclXL-v3, A-1155463 100 nM): 68.011
Raw data (SEAP) (BclXL-v3, A-1155463 100 nM): 6.552
Normalized data (SEAP) (BclXL-v3, A-1155463 316 nM): 43.5621
Raw data (SEAP) (BclXL-v3, A-1155463 316 nM): 4.196
Normalized data (SEAP) (BclXL-v3, A-1155463 1000 nM): 47.9459
Raw data (SEAP) (BclXL-v3, A-1155463 1000 nM): 4.619
Normalized data (SEAP) (BclXL-v3, A-1155463 3160 nM): 98.7391
Raw data (SEAP) (BclXL-v3, A-1155463 3160 nM): 9.512
Normalized data (SEAP) (BclXL-v3, A-1155463 10000 nM): 92.8941
Raw data (SEAP) (BclXL-v3, A-1155463 10000 nM): 8.949
Normalized data (SEAP) (BclXL, A-1155463 1 nM): 5.357
Raw data (SEAP) (BclXL, A-1155463 1 nM): 23.0325

— PMC11062894, “Protein-based bandpass filters for controlling cellular signaling with chemical inputs” (Nature Chemical Biology, 2023)
